Results taken from patent US7919513B2, “Inhibitors of p38” (Vertex Pharmaceuticals Incorporated, priority 2000, dated 2011).
pIC50: −log10 of the molar value.

Key:
[1] = system: TNF production in whole blood; test: Inhibition of TNF production in LPS-stimulated whole blood ("WB"); assay type: cell-based; settings: Homo sapiens, 4 ng/ml LPS, overnight, ELISA TNF-α
Procedure: (§1) C. Inhibition of IL-1, TNF, IL-6 and IL-8 Production in LPS-Stimulated PBMCs
(§2) Inhibitors were serially diluted in DMSO from a 20 mM stock. At least 6 serial dilutions were prepared. Then 4× inhibitor stocks were prepared by adding 4 μl of an inhibitor dilution to 1 ml of RPMI1640 medium/10% fetal bovine serum. The 4× inhibitor stocks contained inhibitor at concentrations of 80 μM, 32 μM, 12.8 μM, 5.12 μM, 2.048 μM, 0.819 μM, 0.328 μM, 0.131 μM, 0.052 μM, 0.021 μM etc. The 4× inhibitor stocks were pre-warmed at 37° C. until use.
(§3) Alternatively, whole blood containing an anti-coagulant was used directly in the assay.
(§4) 100 μl of cell suspension or whole blood were placed in each well of a 96-well cell culture plate. Then 50 μl of the 4× inhibitor stock was added to the cells. Finally, 50 μl of a lipopolysaccharide (LPS) working stock solution (16 ng/ml in cell culture medium) was added to give a final concentration of 4 ng/ml LPS in the assay. […]
(§5) The next day the cells were mixed on a shaker for 3-5 minutes before centrifugation at 500×g for 5 minutes. Cell culture supernatants were harvested and analyzed by ELISA for levels of IL-1β (R & D Systems, Quantikine kits, #DBL50), TNF-α (BioSource, #KHC3012), IL-6 (Endogen, #EH2-IL6) and IL-8 (Endogen, #EH2-IL8) according to the instructions of the manufacturer. […]

[2] = system: TNF production in LPS-stimulated PBMCs; test: Inhibition of TNF production in LPS-stimulated PBMCs ("cell"); assay type: cell-based; settings: Homo sapiens, PBMC, 4 ng/ml LPS, overnight, ELISA TNF-α
Procedure: as §1, §2
(§6) Fresh human blood buffy cells were separated from other cells in a Vacutainer CPT from Becton & Dickinson (containing 4 ml blood and enough DPBS without Mg^2+/Ca^2+ to fill the tube) by centrifugation at 1500×g for 15 min. […] The total cell number was determined using a Neubauer Cell Chamber and the cells were adjusted to a concentration of 4.8×10^6 cells/ml in cell culture medium (RPMI1640 supplemented with 10% fetal bovine serum). […]
as §5

[3] = system: IL-1 production in LPS-stimulated PBMCs; test: Inhibition of IL-1 production in LPS-stimulated PBMCs ("cell"); assay type: cell-based; settings: Homo sapiens, PBMC, 4 ng/ml LPS, overnight, ELISA IL-1β
Procedure: as §1, §2, §6, §5

activated p38 = activated p38 (Homo sapiens, UniProt Q16539); test: Kinase assay: inhibition of phosphorylation of EGF receptor peptide; assay type: biochemical; settings: activated p38 5 nM, EGF receptor peptide 200 μM, ATP 100 μM, 30° C, HPLC
activated p38, sequence (Q16539 whole entry): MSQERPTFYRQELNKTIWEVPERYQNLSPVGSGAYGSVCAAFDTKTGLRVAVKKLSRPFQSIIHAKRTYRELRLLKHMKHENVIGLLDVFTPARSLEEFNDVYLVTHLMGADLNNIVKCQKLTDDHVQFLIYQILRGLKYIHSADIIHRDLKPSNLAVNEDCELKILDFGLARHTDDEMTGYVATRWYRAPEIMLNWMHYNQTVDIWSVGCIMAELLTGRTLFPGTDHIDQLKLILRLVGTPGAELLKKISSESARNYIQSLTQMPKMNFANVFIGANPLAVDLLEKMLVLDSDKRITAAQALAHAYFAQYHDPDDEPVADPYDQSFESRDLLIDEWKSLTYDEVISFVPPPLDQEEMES
Procedure: A. Inhibition of Phosphorylation of EGF Receptor Peptide
This assay was carried out in the presence of 10 mM MgCl2, 25 mM β-glycerophosphate, 10% glycerol and 100 mM HEPES buffer at pH 7.6. For a typical IC50 determination, a stock solution was prepared containing all of the above components and activated p38 (5 nM). The stock solution was aliquotted into vials. A fixed volume of DMSO or inhibitor in DMSO (final concentration of DMSO in reaction was 5%) was introduced to each vial, mixed and incubated for 15 minutes at room temperature. EGF receptor peptide, […] (SEQ ID NO: 3), a phosphoryl acceptor in p38-catalyzed kinase reaction (1), was added to each vial to a final concentration of 200 μM. The kinase reaction was initiated with ATP (100 μM) and the vials were incubated at 30° C. After 30 minutes, the reactions were quenched with equal volume of 10% trifluoroacetic acid (TFA).
The phosphorylated peptide was quantified by HPLC analysis. Separation of phosphorylated peptide from the unphosphorylated peptide was achieved on a reverse phase column (Deltapak, 5 μm, C18 100D, Part no. 011795) with a binary gradient of water and acteonitrile, each containing 0.1% TFA. IC50 (concentration of inhibitor yielding 50% inhibition) was determined by plotting the percent (%) activity remaining against inhibitor concentration.

[4] = system: IL-1 production in whole blood; test: Inhibition of IL-1 production in LPS-stimulated whole blood ("WB"); assay type: cell-based; settings: Homo sapiens, 4 ng/ml LPS, overnight, ELISA IL-1β
Procedure: as §1, §2, §3, §4, §5

[5] = system: IL-6 production in whole blood; test: Inhibition of IL-6 production in LPS-stimulated whole blood ("WB"); assay type: cell-based; settings: Homo sapiens, 4 ng/ml LPS, overnight, ELISA IL-6
Procedure: as §1, §2, §3, §4, §5

| SMILES | pIC50 [1] | pIC50 [2] | pIC50 [3] | pIC50 (activated p38) | pIC50 [4] | pIC50 [5] |
| --- | --- | --- | --- | --- | --- | --- |
| CN(C)/C=N/C(=O)OCc1ccc(N(C(N)=O)c2c(F)cccc2F)nc1-c1ccc(F)cc1F [Compound 9] | 4.70 | 7.30 | 7.30 | 6.00 | 4.91 | 4.96 |
| CN(C)/C=N/C(=O)OCc1ccc(N(C(=O)/N=C/N(C)C)c2c(F)cccc2F)nc1-c1ccc(F)cc1F [Compound 10] | 5.37 | – | – | 5.30 | 5.66 | 6.10 |
